Results on 20 compounds are retold here after patent US20250288573A1 (H. LEE MOFFITT CANCER CENTER AND RESEARCH INSTITUTE, INC., priority 2018, published 2025).

Read-outs that look alike come from different tables or passages of the source.

This experiment deals with T1, CRBN (Homo sapiens, UniProt Q96SW2).
T1 construct: endogenous in cells; host or cells: primary human T cells / CD8+ T cells from peripheral blood
Nature of the experiment: Western blot for expression of CRBN relative to vinculin in human T cells (CRBN degradation). It counts as cell-based. Particulars: for remaining activity at 10 µM / remaining activity at 0.01 µM: read-out: Relative Density of CRBN (% of DMSO); for remaining activity at 0.01 µM: 24 h; for CRBN Degradation ** (WB): grade (+) to (++++) or words, key not given. From the text: Bortez=bortezomib; MG132=proteasome inhibitor; MLN4924=NEDD8 inhibitor.
This assay is a standard Western blot assay for expression of CRBN relative to vinculin.
[…] 0.1 percent DMSO was used as a vehicle control.
(In general: In western blotting, separated proteins are transferred to a membrane and probed.)

T1 sequence (Q96SW2 whole entry): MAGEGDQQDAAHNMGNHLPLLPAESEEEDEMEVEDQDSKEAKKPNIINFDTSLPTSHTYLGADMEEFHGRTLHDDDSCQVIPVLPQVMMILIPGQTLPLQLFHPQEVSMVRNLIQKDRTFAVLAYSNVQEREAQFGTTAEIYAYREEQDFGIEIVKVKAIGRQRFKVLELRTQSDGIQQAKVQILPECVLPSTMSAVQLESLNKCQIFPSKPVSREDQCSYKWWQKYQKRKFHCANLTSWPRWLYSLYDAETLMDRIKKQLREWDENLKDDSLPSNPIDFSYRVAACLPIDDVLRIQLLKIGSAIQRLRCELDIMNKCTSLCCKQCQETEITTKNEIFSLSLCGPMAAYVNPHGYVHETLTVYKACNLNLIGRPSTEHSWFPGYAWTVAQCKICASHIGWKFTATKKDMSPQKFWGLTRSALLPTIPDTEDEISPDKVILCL

For `O=C1CCC(N2Cc3ccc(NC(=O)CCCC(=O)Nc4ccc5c(c4)C(=O)N(C4CCC(=O)NC4=O)C5)cc3C2=O)C(=O)N1` (stereo not drawn) [EC2-060, N^1,N^5-bis(2-(2,6-Dioxopiperidin-3-yl)-3-oxoisoindolin-5-yl)glutaramide], the “CRBN Degradation ** (WB)” value is “No degradation”. Moreover, the remaining activity at 10 µM (10uM) was 40.3%. Further, the remaining activity at 0.01 µM (10nM, human T cells, 24 hours) was determined as 48.4%.
With `O=C1CCC(N2Cc3ccc(NC(=O)CCCCCCC(=O)Nc4ccc5c(c4)C(=O)N(C4CCC(=O)NC4=O)C5)cc3C2=O)C(=O)N1` (stereo not drawn) [EC2-063, N^1,N^8-bis(2-(2,6-Dioxopiperidin-3-yl)-3-oxoisoindolin-5-yl)octanediamide], the remaining activity at 10 µM (10uM) was found to be 13.5%. Moreover, where the note is “10nM, human T cells, 24 hours”, the remaining activity at 0.01 µM turned out to be 38.8%.
Take `O=C1CCC(N2Cc3ccc(NC(=O)CCCCC(=O)Nc4ccc5c(c4)C(=O)N(C4CCC(=O)NC4=O)C5)cc3C2=O)C(=O)N1` (stereo not drawn) [EC2-066]: the remaining activity at 10 µM (10uM) was found to be 189%.
For the compound `Cc1sc2c(c1C)C(c1ccc(Cl)cc1)=N[C@@H](CC(=O)NCCCCC(=O)Nc1cccc(C(=O)NC3CCC(=O)NC3=O)c1)c1nnc(C)n1-2` (stereo partly drawn) [EC2-088], the “CRBN Degradation (WB)/ IC50/DC50 Relative Density of CRBN (% of DMSO): value without qualifier” value (no concentration or unit printed) is 43.73 ± 24.45 (1/25/19).
For the compound `O=C1CCC(N2Cc3c(C#CCCCCCCCC(=O)Nc4cccc5c4CN(C4CCC(=O)NC4=O)C5=O)cccc3C2=O)C(=O)N1` (stereo not drawn) [EC2-100, N,10-bis(2-(2,6-Dioxopiperidin-3-yl)-1-oxoisoindolin-4-yl)dec-9-ynamide], the remaining activity at 10 µM (10uM) was 32.2%. In addition, the remaining activity at 0.01 µM (10nM, human T cells, 24 hours) was determined as 55.5%.
The matching figures for `O=C1CCC(N2Cc3c(CCCCCCCCCC(=O)Nc4cccc5c4CN(C4CCC(=O)NC4=O)C5=O)cccc3C2=O)C(=O)N1` (stereo not drawn) [EC2-102, N,10-bis(2-(2,6-Dioxopiperidin-3-yl)-1-oxoisoindolin-4-yl)decanamide]: 25.2% and 58.9%.
The matching figures for `O=C1CCC(N2Cc3c(C#CCCCC(=O)Nc4cccc5c4CN(C4CCC(=O)NC4=O)C5=O)cccc3C2=O)C(=O)N1` (stereo not drawn) [EC2-108, N,6-bis(2-(2,6-Dioxopiperidin-3-yl)-1-oxoisoindolin-4-yl)hex-5-ynamide]: 79.7% and 85.6%.
Turning to `O=C1CCC(N2Cc3c(CCCCCC(=O)Nc4cccc5c4CN(C4CCC(=O)NC4=O)C5=O)cccc3C2=O)C(=O)N1` (stereo not drawn) [EC2-109, N,6-bis(2-(2,6-Dioxopiperidin-3-yl)-1-oxoisoindolin-4-yl)hexanamide], under “10uM”, the remaining activity at 10 µM turned out to be 9.84%. For the same compound, the remaining activity at 0.01 µM (10nM, human T cells, 24 hours) was 97.5%.
The matching figures for `Cc1nc2cccc(NC(=O)CCCCCCC(=O)Nc3cccc4nc(C)n(C5CCC(=O)NC5=O)c(=O)c34)c2c(=O)n1C1CCC(=O)NC1=O` (stereo not drawn) [MA10-077, N1,N8-bis(3-(2,6-dioxopiperidin-3-yl)-2-methyl-4-oxo-3,4-dihydroquinazolin-5-yl)octanediamide]: 74.3% and 139%.
The matching figures for `Cc1nc2cccc(NC(=O)CCCCCCCC(=O)Nc3cccc4nc(C)n(C5CCC(=O)NC5=O)c(=O)c34)c2c(=O)n1C1CCC(=O)NC1=O` (stereo not drawn) [MA10-086, N1,N9-bis(3-(2,6-Dioxopiperidin-3-yl)-2-methyl-4-oxo-3,4-dihydroquinazolin-5-yl)nonanediamide]: 71% and 138%.
The matching figures for `Cc1nc2cccc(NC(=O)CCCCC(=O)Nc3cccc4nc(C)n(C5CCC(=O)NC5=O)c(=O)c34)c2c(=O)n1C1CCC(=O)NC1=O` (stereo not drawn) [MA10-088, N1,N6-bis(3-(2,6-Dioxopiperidin-3-yl)-2-methyl-4-oxo-3,4-dihydroquinazolin-5-yl)adipamide]: 58.1% and 135%.
Regarding `Cc1nc2cccc(NC(=O)CCCCCCCCC(=O)Nc3cccc4nc(C)n(C5CCC(=O)NC5=O)c(=O)c34)c2c(=O)n1C1CCC(=O)NC1=O` (stereo not drawn) [MA10-090, N1,N10-bis(3-(2,6-Dioxopiperidin-3-yl)-2-methyl-4-oxo-3,4-dihydroquinazolin-5-yl)decanediamide], the remaining activity at 10 µM (10uM) was 82.2%. Further, the remaining activity at 0.01 µM (10nM, human T cells, 24 hours) was found to be 132%.
The matching figures for `Cc1nc2cccc(NCc3ccc(CNc4cccc5nc(C)n(C6CCC(=O)NC6=O)c(=O)c45)cc3)c2c(=O)n1C1CCC(=O)NC1=O` (stereo not drawn) [MA10-112]: 21.4% and 5.13%.
As to `Cc1nc2cccc(CCCOCCOCCCc3cccc4nc(C)n(C5CCC(=O)NC5=O)c(=O)c34)c2c(=O)n1C1CCC(=O)NC1=O` (stereo not drawn) [MA10-120, 3,3′-(((Ethane-1,2-diylbis(oxy))bis(propane-3,1-diyl))bis(2-methyl-4-oxoquinazoline-5,3(4H)-diyl))bis(piperidine-2,6-dione)], the remaining activity at 0.01 µM turned out to be 56.7% and the remaining activity at 10 µM is 82.8%.
As for `Cc1nc2cccc(NC(=O)CCCCCC(=O)Nc3cccc4nc(C)n(C5CCC(=O)NC5=O)c(=O)c34)c2c(=O)n1C1CCC(=O)NC1=O` (stereo not drawn) [MA10-121, N1,N7-bis(3-(2,6-Dioxopiperidin-3-yl)-2-methyl-4-oxo-3,4-dihydroquinazolin-5-yl)heptanediamide], the remaining activity at 10 µM (10uM) amounted to 72.6%. In addition, the remaining activity at 0.01 µM (10nM, human T cells, 24 hours) worked out at 56.5%.
For `Cc1nc2cccc(NCc3cccc(CNc4cccc5nc(C)n(C6CCC(=O)NC6=O)c(=O)c45)n3)c2c(=O)n1C1CCC(=O)NC1=O` (stereo not drawn) [MA10-126, 3,3′-(((Pyridine-2,6-diylbis(methylene))bis(azanediyl))bis(2-methyl-4-oxoquinazoline-5,3(4H)-diyl))bis(piperidine-2,6-dione)], under “10uM”, the remaining activity at 10 µM came to 61.1%. Besides, the remaining activity at 0.01 µM (10nM, human T cells, 24 hours) amounted to 54.2%.
As to `Cc1nc2cccc(C#CCOCCOCCOCC#Cc3cccc4nc(C)n(C5CCC(=O)NC5=O)c(=O)c34)c2c(=O)n1C1CCC(=O)NC1=O` (stereo not drawn) [MA10-153, 3,3′-((((Oxybis(ethane-2,1-diyl))bis(oxy))bis(prop-1-yne-3,1-diyl))bis(2-methyl-4-oxoquinazoline-5,3(4H)-diyl))bis(piperidine-2,6-dione)], the “CRBN Degradation ** (WB)” value was “No Degradation”. Moreover, the remaining activity at 10 µM (10uM) came out at 208%. Moreover, the remaining activity at 0.01 µM (10nM, human T cells, 24 hours) turned out to be 14.8%.
As to `CN1C(=O)CCC(N2Cc3c(CCCOCCOCCCc4cccc5c4CN(C4CCC(=O)N(C)C4=O)C5=O)cccc3C2=O)C1=O` (stereo not drawn) [SM3-104, 3,3′-(((Ethane-1,2-diylbis(oxy))bis(propane-3,1-diyl))bis(1-oxoisoindoline-4,2-diyl))bis(1-methylpiperidine-2,6-dione)], for the setting “10nM, human T cells, 24 hours”, the remaining activity at 0.01 µM worked out at 92.1%.
`O=C1CC[C@H](N2Cc3c(CCCOCCOCCCc4cccc5c4CN([C@H]4CCC(=O)NC4=O)C5=O)cccc3C2=O)C(=O)N1` [XS01-011, (3S,3'S)-3,3′-(((Ethane-1,2-diylbisbis(oxy))bisbis(propane-3,1-diyl))bisbis(1-oxoisoindoline-4,2-diyl))bisbis(piperidine-2,6-dione)]: the remaining activity at 10 µM (10uM) came to 38.1%. For the same compound, the remaining activity at 0.01 µM (10nM, human T cells, 24 hours) was 3.42%.
The matching figures for `Cc1nc2c(NCc3ccc(CNc4cccc5c(=O)n(C6CCC(=O)NC6=O)c(C)nc45)cc3)cccc2c(=O)n1C1CCC(=O)NC1=O` (stereo not drawn) [XS01-030, 3,3′-(((1,4-Phenylenebis(methylene))bis(azanediyl))bis(2-methyl-4-oxoquinazoline-8,3(4H)-diyl))bis(piperidine-2,6-dione)]: 93% and 12.1%.
